Assay results from patent US9278922B2 (ABBVIE INC., priority 2009, dated 2016).

Test system: HCV 1b-Con-1 replicon
Assay: HCV 1b-Con-1 replicon assay (luciferase reporter gene, HuH-7 cells)
Format: cell-based, Hepatitis C virus (HCV) genotype 1b-Con1
Conditions: Hepatitis C virus, Huh-7, luciferase reporter gene activity in the replicon, in the presence of 5% FBS

Q: With `O=C([C@@H](c1ccccc1)N1CCOCC1)N1CCC[C@H]1c1nc2cc(CN(Cc3ccc4[nH]c([C@@H]5CCCN5C(=O)[C@@H](c5ccccc5)N5CCOCC5)nc4c3)c3ccccc3)ccc2[nH]1` [Example 67, N,N-bis[(2-{(2S)-1-[(2R)-2-morpholin-4-yl-2-phenylacetyl]pyrrolidin-2-yl}-1H-benzimidazol-5-yl)methyl]aniline] as the compound, how does the EC50 read?
A: < 1 nM

Q: Which EC50 does the source give for `CCC[C@H](NC(=O)OC)C(=O)N1CCC[C@H]1C(=O)Nc1ccc(CN(Cc2ccc(NC(=O)[C@@H]3CCCN3C(=O)[C@H](CCC)NC(=O)OC)cc2)c2ccccc2)cc1` [Example 46, dimethyl [(phenylimino)bis{methanediylbenzene-4,1-diylcarbamoyl(2S)pyrrolidine-2,1-diyl[(2S)-1-oxopentane-1,2-diyl]}]biscarbamate] here?
A: 1 to 10 nM

Q: How did the EC50 turn out when `CCN(CC)[C@@H](C(=O)N1CCC[C@H]1C(=O)Nc1ccc(CN(Cc2ccc(NC(=O)[C@@H]3CCCN3C(=O)[C@@H](NC(=O)OC)C(C)(C)C)cc2)c2ccccc2)cc1)c1ccccc1` [Example 12, Methyl (S)-1-((S)-2-(4-(((4-((S)-1-((R)-2-(diethylamino)-2-phenylacetyl)pyrrolidine-2-carboxamido)benzyl)(phenyl)amino)methyl)phenylcarbamoyl)pyrrolidin-1-yl)-3,3-dimethyl-1-oxobutan-2-ylcarbamate] was run?
A: < 1 nM

Q: How did the EC50 turn out when `COC(=O)N[C@H](C(=O)N1CCC[C@H]1C(=O)Nc1ccc(CN(Cc2ccc(NC(=O)[C@@H]3CCCN3C(=O)[C@@H](NC(=O)O[C@H]3CCOC3)C(C)(C)C)cc2)c2ccccc2)cc1)C(C)(C)C` [Example 59, methyl (3S)-tetrahydrofuran-3-yl[(phenylimino)bis{methanediylbenzene-4,1-diylcarbamoyl(2S)pyrrolidine-2,1-diyl[(2S)-3,3-dimethyl-1-oxobutane-1,2-diyl]}]biscarbamate] was run?
A: 10 to 100 nM

Q: Which EC50 does the source give for `O=C(Nc1ccc(CN(Cc2ccc(NC(=O)[C@@H]3CCCN3C(=O)C(c3ccccc3)N3CC[C@H](F)C3)cc2)c2ccc(F)cc2)cc1)[C@@H]1CCCN1C(=O)C(c1ccccc1)N1CC[C@H](F)C1` (single isomer, unassigned) [Example 120] here?
A: < 1 nM

Q: `CC(C)(C)[C@H](Nc1nccs1)C(=O)N1CCC[C@H]1C(=O)Nc1ccc(CN(Cc2ccc(NC(=O)[C@@H]3CCCN3C(=O)[C@@H](Nc3nccs3)C(C)(C)C)cc2)c2ccccc2)cc1` [Example 121, (2S,2′S)-N,N′-[(phenylimino)bis(methanediylbenzene-4,1-diyl)]bis{1-[(2S)-3,3-dimethyl-2-(1,3-thiazol-2-ylamino)butanoyl]pyrrolidine-2-carboxamide}] was tested. Which EC50 did it give?
A: < 1 nM

Q: Which EC50 does the source give for `COC(=O)N[C@@H]1CCC[C@H]2CC[C@@H](C(=O)Nc3ccc(CN(Cc4ccc(NC(=O)[C@@H]5CC[C@@H]6CCC[C@@H](NC(=O)OC)C(=O)N65)cc4)c4ccccc4)cc3)N2C1=O` [Example 63, dimethyl [(phenylimino)bis{methanediylbenzene-4,1-diylcarbamoyl[(3S,6R,9aS)-5-oxooctahydro-1H-pyrrolo[1,2-a]azepine-3,6-diyl]}]biscarbamate] here?
A: 10 to 100 nM

Q: Which EC50 does the source give for `COC(=O)N1CCOC[C@H]1C(=O)N1CCC[C@H]1C(=O)Nc1ccc(CN(Cc2ccc(NC(=O)[C@@H]3CCCN3C(=O)[C@@H]3COCCN3C(=O)OC)cc2)c2ccc(F)cc2)cc1` [Example 144, dimethyl (3S,3′S)-3,3′-{[(4-fluorophenyl)imino]bis[methanediylbenzene-4,1-diylcarbamoyl(2S)pyrrolidine-2,1-diylcarbonyl]}dimorpholine-4-carboxylate] here?
A: 100 to 250 nM

Q: Which EC50 does the source give for `CC[C@@H](C)[C@H](NC(=O)OC)C(=O)N1CCC[C@H]1C(=O)Nc1ccc(CN(Cc2ccc(NC(=O)[C@@H]3CCCN3C(=O)[C@@H](NC(=O)OC)[C@H](C)CC)cc2)c2ccccc2)cc1` [Example 50, dimethyl[(phenylimino)bis{methanediylbenzene-4,1-diylcarbamoyl(2S)pyrrolidine-2,1-diyl[(2S,3R)-3-methyl-1-oxopentane-1,2-diyl]}]biscarbamate] here?
A: < 1 nM

Q: For `CCN(CC)[C@@H](C(=O)N1CCC[C@H]1C(=O)Nc1ccc(CN(Cc2ccc(NC(=O)[C@@H]3CCCN3C(=O)[C@@H](NC(=O)OC)[C@H]3CCOC3)cc2)c2ccc(F)cc2)cc1)c1ccccc1` [Example 81, methyl {(1S)-2-{(2S)-2-[(4-{[{4-[({(2S)-1-[(2R)-2-(diethylamino)-2-phenylacetyl]pyrrolidin-2-yl}carbonyl)amino]benzy}(4-fluorophenyl)amino]methyl}phenyl)carbamoyl]pyrrolidin-1-yl}-2-oxo-1-[(3R)-tetrahydrofuran-3-yl]ethyl}carbamate], which EC50 is on record?
A: < 1 nM

Q: Which EC50 does the source give for `CCN(CC)[C@@H](C(=O)N1CCC[C@H]1C(=O)Nc1ccc(CN(Cc2ccc(NC(=O)[C@@H]3CCCN3C(=O)[C@@H](NC(=O)OC)[C@@H](C)OC)cc2)c2ccc(F)cc2)cc1)c1ccccc1` [Example 84, N-(methoxycarbonyl)-O-methyl-L-threonyl-N-[4-({[4-({1-[(2R)-2-(diethylamino)-2-phenylacetyl]-L-prolyl}amino)benzyl](4-fluorophenyl)amino}methyl)phenyl]-L-prolinamide] here?
A: < 1 nM

Q: Which EC50 does the source give for `COC(=O)N[C@H](C(=O)N1CCC[C@H]1C(=O)Nc1ccc(CN(Cc2ccc(NC(=O)[C@@H]3CCCN3C(=O)[C@@H](c3ccccc3)N3CCCCC3)cc2)c2ccc(F)cc2)cc1)[C@H]1CCOC1` [Example 114, methyl {(1S)-2-{(2S)-2-[(4-{[(4-fluorophenyl){4-[({(2S)-1-[(2R)-2-phenyl-2-piperidin-1-ylacetyl]pyrrolidin-2-yl}carbonyl)amino]benzyl}amino]methyl}phenyl)carbamoyl]pyrrolidin-1-yl}-2-oxo-1-[(3R)-tetrahydrofuran-3-yl]ethyl}carbamate] here?
A: < 1 nM

Q: How did the EC50 turn out when `COC(=O)N[C@H](C(=O)N(C)[C@@H](C)C(=O)Nc1ccc(CN(Cc2ccc(NC(=O)[C@H](C)N(C)C(=O)[C@@H](NC(=O)OC)C(C)(C)C)cc2)c2ccccc2)cc1)C(C)(C)C` [Example 47, dimethyl[(phenylimino)bis{methanediylbenzene-4,1-diylimino[(2S)-1-oxopropane-1,2-diyl](methylimino)[(2S)-3,3-dimethyl-1-oxobutane-1,2-diyl]}]biscarbamate] was run?
A: 1 to 10 nM

Q: How did the EC50 turn out when `CCN(CC)[C@@H](C(=O)N1CCC[C@H]1C(=O)Nc1ccc(CN(Cc2ccc(NC(=O)[C@@H]3CCCN3C(=O)[C@@H](c3ccccc3)N(CC)CC)cc2)c2ccc(F)c(F)c2)cc1)c1ccccc1` [Example 89, (2S,2′S)-N,N′-{[(3,4-difluorophenyl)imino]bis(methanediylbenzene-4,1-diyl)}bis{1-[(2R)-2-(diethylamino)-2-phenylacetyl]pyrrolidine-2-carboxamide}] was run?
A: < 1 nM

Q: For `O=C(Nc1ccc(CN(Cc2ccc(NC(=O)[C@@H]3CCCN3C(=O)C(c3ccccc3)C3CCCC3)cc2)c2ccc(F)cc2)cc1)[C@@H]1CCCN1C(=O)C(c1ccccc1)C1CCCC1` (stereo partly drawn) [Example 107, (2S,2′S)-N,N′-{[(4-fluorophenyl)imino]bis(methanediylbenzene-4,1-diyl)}bis{1-[cyclopentyl(phenyl)acetyl]pyrrolidine-2-carboxamide}], which EC50 is on record?
A: 10 to 100 nM

Q: For `CCN(CC)[C@@H](C(=O)N1CCC[C@H]1C(=O)Nc1ccc(CN(Cc2ccc(NC(=O)[C@@H]3CCCN3C(=O)[C@@H](c3ccccc3)N3CCCC3)cc2)c2ccc(F)cc2)cc1)c1ccccc1` [Example 83, (2S)-1-[(2R)-2-(diethylamino)-2-phenylacetyl]-N-(4-{[(4-fluorophenyl){4-[({(2S)-1-[(2R)-2-phenyl-2-pyrrolidin-1-ylacetyl]pyrrolidin-2-yl}carbonyl)amino]benzyl}amino]methyl}phenyl)pyrrolidine-2-carboxamide], which EC50 is on record?
A: < 1 nM

Q: For `COC(=O)N[C@H](C(=O)N1CCC[C@H]1C(=O)Nc1ccc(CN(Cc2ccc(NC(=O)[C@@H]3CCCN3C(=O)[C@@H](NC(=O)OC)C(C)(C)C)cc2)c2ccc(F)c(F)c2)cc1)C(C)(C)C` [Example 90, dimethyl ([(3,4-difluorophenyl)imino]bis{methanediylbenzene-4,1-diylcarbamoyl(2S)pyrrolidine-2,1-diyl[(2S)-3,3-dimethyl-1-oxobutane-1,2-diyl]})biscarbamate], which EC50 is on record?
A: < 1 nM

Q: With `COC(=O)N[C@H](C(=O)N1CCC[C@H]1C(=O)Nc1ccc(CN(Cc2ccc(NC(=O)[C@@H]3CCCN3C(=O)[C@@H](c3ccccc3)N(C)C)cc2)c2ccccc2)cc1)C(C)(C)C` [Example 10, Methyl (S)-1-((S)-2-(4-(((4-((S)-1-((R)-2-(dimethylamino)-2-phenylacetyl)pyrrolidine-2-carboxamido)benzyl)(phenyl)amino)methyl)phenylcarbamoyl)pyrrolidin-1-yl)-3,3-dimethyl-1-oxobutan-2-ylcarbamate] as the compound, how does the EC50 read?
A: < 1 nM

Q: Which EC50 does the source give for `COC(=O)N[C@@H](CO)C(=O)N1CCC[C@H]1C(=O)Nc1ccc(CN(Cc2ccc(NC(=O)[C@@H]3CCCN3C(=O)[C@H](CO)NC(=O)OC)cc2)c2ccccc2)cc1` [Example 26, dimethyl[(phenylimino)bis{methanediylbenzene-4,1-diylcarbamoyl(2S)pyrrolidine-2,1-diyl[(2S)-3-hydroxy-1-oxopropane-1,2-diyl]}]biscarbamate] here?
A: 10 to 100 nM

Q: `O=C(Nc1ccc(CN(Cc2ccc(NC(=O)[C@@H]3CCCN3C(=O)[C@H](O)c3ccccc3)cc2)c2ccc(F)cc2)cc1)[C@@H]1CCCN1C(=O)[C@H](O)c1ccccc1` [Example 110, (2S ,2′S)-N,N′-{[(4-fluorophenyl)imino]bis(methanediylbenzene-4,1-diyl)}bis{1-[(2R)-2-hydroxy-2-phenylacetyl]pyrrolidine-2-carboxamide}] was tested. Which EC50 did it give?
A: < 1 nM

Q: `CCC(O)(CC)C(C(=O)N1CCC[C@H]1C(=O)Nc1ccc(CN(Cc2ccc(NC(=O)[C@@H]3CCCN3C(=O)C(c3ccccc3)C(O)(CC)CC)cc2)c2ccc(F)cc2)cc1)c1ccccc1` (stereo partly drawn) [Example 105, (2S,2′S)-N,N′-{[(4-fluorophenyl)imino]bis(methanediylbenzene-4,1-diyl)}bis[1-(3-ethyl-3-hydroxy-2-phenylpentanoyl)pyrrolidine-2-carboxamide]] was tested. Which EC50 did it give?
A: < 1 nM
